# Tests used:
# Test in all cases: spectrophotometric GSH-CDNB conjugation, nonlinear regression
# Format in all cases: biochemical
# Settings in all cases: GSH fixed 1.0 mM; 50 mM potassium phosphate pH 6.5; 25 °C; read-out: K mCDNB /
# [1] = molecular target: T1, SbGSTU13 (Salix babylonica, UniProt A0A4Y5R0L5)
# T1 construct: gene GSTU13; full length, 6xHis-tag (pET30a), E. coli BL21 (DE3), Ni-Sepharose
# T1 sequence (A0A4Y5R0L5 1-222): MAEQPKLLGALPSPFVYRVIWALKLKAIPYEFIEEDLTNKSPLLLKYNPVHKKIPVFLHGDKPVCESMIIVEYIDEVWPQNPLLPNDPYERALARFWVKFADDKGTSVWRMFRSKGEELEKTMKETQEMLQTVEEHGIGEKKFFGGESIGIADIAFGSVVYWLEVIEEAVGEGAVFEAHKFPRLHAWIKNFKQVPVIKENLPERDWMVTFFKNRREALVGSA
# Source text: spectrophotometric GSH-CDNB conjugation, nonlinear regression on SbGSTU13
# [2] = molecular target: T2, SbGSTU10 (Salix babylonica, UniProt A0A4Y5QZX3)
# T2 construct: gene GSTU10; full length, 6xHis-tag (pET30a), E. coli BL21 (DE3), Ni-Sepharose
# T2 sequence (A0A4Y5QZX3 1-220): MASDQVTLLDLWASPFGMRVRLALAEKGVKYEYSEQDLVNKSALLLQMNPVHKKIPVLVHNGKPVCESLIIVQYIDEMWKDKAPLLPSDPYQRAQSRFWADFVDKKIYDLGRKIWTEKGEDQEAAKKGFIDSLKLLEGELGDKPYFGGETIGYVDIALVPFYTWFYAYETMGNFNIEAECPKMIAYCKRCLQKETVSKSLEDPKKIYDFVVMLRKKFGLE
# Source text: spectrophotometric GSH-CDNB conjugation, nonlinear regression on SbGSTU10
# [3] = molecular target: T3, SbGSTU1 (Salix babylonica, UniProt A0A4Y5R2M7)
# T3 construct: gene GSTU1; full length, 6xHis-tag (pET30a), E. coli BL21 (DE3), Ni-Sepharose
# T3 sequence (A0A4Y5R2M7 1-219): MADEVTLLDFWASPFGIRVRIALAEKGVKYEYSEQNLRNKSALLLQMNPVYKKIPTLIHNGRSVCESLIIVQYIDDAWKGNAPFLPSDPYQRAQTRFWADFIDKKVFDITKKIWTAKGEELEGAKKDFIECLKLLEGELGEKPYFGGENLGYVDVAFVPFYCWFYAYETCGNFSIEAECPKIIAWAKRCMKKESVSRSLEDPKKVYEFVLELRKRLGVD
# Source text: spectrophotometric GSH-CDNB conjugation, nonlinear regression on SbGSTU1
# [4] = molecular target: T4, SbGSTU12 (Salix babylonica, UniProt A0A4Y5R0C1)
# T4 construct: gene GSTU12; full length, 6xHis-tag (pET30a), E. coli BL21 (DE3), Ni-Sepharose
# T4 sequence (A0A4Y5R0C1 1-222): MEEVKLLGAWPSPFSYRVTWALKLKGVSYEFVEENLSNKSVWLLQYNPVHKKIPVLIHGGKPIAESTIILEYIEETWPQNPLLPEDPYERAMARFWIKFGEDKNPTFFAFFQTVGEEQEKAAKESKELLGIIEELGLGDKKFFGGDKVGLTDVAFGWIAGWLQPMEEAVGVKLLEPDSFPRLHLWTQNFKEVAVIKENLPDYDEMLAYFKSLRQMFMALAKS
# Source text: spectrophotometric GSH-CDNB conjugation, nonlinear regression on SbGSTU12
# [5] = molecular target: T5, SbGSTU3 (Salix babylonica, UniProt A0A4Y5R0K8)
# T5 construct: gene GSTU3; full length, 6xHis-tag (pET30a), E. coli BL21 (DE3), Ni-Sepharose
# T5 sequence (A0A4Y5R0K8 1-220): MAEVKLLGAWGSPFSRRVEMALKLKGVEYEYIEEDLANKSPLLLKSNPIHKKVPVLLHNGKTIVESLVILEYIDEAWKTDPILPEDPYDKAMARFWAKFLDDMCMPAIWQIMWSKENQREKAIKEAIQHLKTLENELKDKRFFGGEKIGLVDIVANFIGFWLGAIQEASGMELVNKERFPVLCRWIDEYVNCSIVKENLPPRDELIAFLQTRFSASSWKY
# Source text: spectrophotometric GSH-CDNB conjugation, nonlinear regression on SbGSTU3
# [6] = molecular target: T6, SbGSTU7 (Salix babylonica, UniProt A0A4Y5R087)
# T6 construct: gene GSTU7; full length, 6xHis-tag (pET30a), E. coli BL21 (DE3), Ni-Sepharose
# T6 sequence (A0A4Y5R087 1-219): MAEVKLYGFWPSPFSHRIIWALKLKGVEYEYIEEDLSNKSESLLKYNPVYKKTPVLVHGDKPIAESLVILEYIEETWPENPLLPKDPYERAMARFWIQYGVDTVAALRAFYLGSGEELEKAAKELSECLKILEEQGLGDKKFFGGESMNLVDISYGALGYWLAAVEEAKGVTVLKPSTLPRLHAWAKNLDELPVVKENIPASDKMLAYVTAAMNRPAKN
# Source text: spectrophotometric GSH-CDNB conjugation, nonlinear regression on SbGSTU7
structure (smiles),measurement,setting,value
"O=[N+]([O-])c1ccc(Cl)c([N+](=O)[O-])c1 [CDNB, 1-chloro-2,4-dinitrobenzene]",Km,[1],1270 ± 62 µM
same,Km,[2],156 ± 2 µM
same,Km,[3],201 ± 4 µM
same,Km,[4],2140 ± 272 µM
same,Km,[5],1000 ± 33 µM
same,Km,[6],2070 ± 165 µM

# Reference: PMC7145991, “Biochemical Functions of Glutathione S-Transferase Family of Salix babylonica” (Frontiers in Plant Science, 2020)
